Test systems include UACC-257 melanoma; HCT-15 colon; A498 renal; TK-10 renal; RXF 393 renal; HS 578T breast; RPMI-8226 leukemia; PC-3 prostate; MDA-MB-435; MOLT-4 leukemia.
Experiment in all cases: inhibition of tumour cell growth, NCI panel, 48 h

Several values for one entry are separate records, joined by “and”; a condition that tells them apart may be missing. Identical values can stand only once.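 A five-concentration, 48-hour dose response in 96-well plates underlies each endpoint, interpolated linearly between surrounding concentrations. Abbreviation: GI50, concentration required for 50% inhibition of growth. TGI is the concentration that stops growth completely.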

As for `CCC(c1ccccc1)c1cc(C(C)(C)C)cc(C(C)(C)C)c1O` (configuration not stated), the TGI stood at 28.5 µM with UACC-257 melanoma; 30.5 µM in the assay on HCT-15 colon; 33.9 µM in the assay on A498 renal; 28.8 µM in the assay with TK-10 renal; 34.2 µM with RXF 393 renal; 32.3 µM with HS 578T breast. For the same compound, the TGI in the assay on RPMI-8226 leukemia came to 28.5 µM; in the assay on PC-3 prostate it was 31.6 µM; with MDA-MB-435, 32 µM.

On to `COc1ccc2c(c1)nnc1c3cccnc3[nH]c21`, for which the GI50 was 7.49 µM and 1.91 µM in the assay with UACC-257 melanoma; 2.26 µM and 2.3 µM with HCT-15 colon; 8 µM and 2.48 µM in the assay with A498 renal; 4.52 µM in the assay with TK-10 renal; 0.66 µM and 1.76 µM with RXF 393 renal; 3.47 µM and 4.89 µM in the assay on HS 578T breast. Also, the GI50 with RPMI-8226 leukemia is 0.725 µM and 0.487 µM; in the assay with MOLT-4 leukemia it was 0.0299 µM; in the assay with PC-3 prostate, 1.42 µM; in the assay with MDA-MB-435, 1.44 µM and 1.52 µM. In addition, the TGI is 41 µM and 10.7 µM in the assay with UACC-257 melanoma; 50 µM and 12.9 µM in the assay with HCT-15 colon; 19.2 µM and 21.3 µM in the assay on A498 renal; 22.6 µM in the assay on TK-10 renal; 2.15 µM and 12.6 µM with RXF 393 renal; 25.5 µM and 81.2 µM with HS 578T breast. For the same compound, the TGI was 2.98 µM and 5.53 µM in the assay on RPMI-8226 leukemia; 0.219 µM with MOLT-4 leukemia; over 100 µM in the assay on PC-3 prostate; 9.43 µM and 12.3 µM with MDA-MB-435.

As for `NS(=O)(=O)c1ccc(N=Nc2c[nH]c(=O)c(O)c2)cc1`, the TGI in the assay on UACC-257 melanoma, in the assay on HCT-15 colon, in the assay with A498 renal, in the assay on TK-10 renal, in the assay on RXF 393 renal and in the assay with HS 578T breast was over 100 µM in each case. Further, the TGI in the assay on RPMI-8226 leukemia, in the assay with MOLT-4 leukemia, in the assay on PC-3 prostate and in the assay with MDA-MB-435 was over 100 µM each time.

On to `Clc1ccc(-c2nc(NCc3ccco3)c3ccccc3n2)c(Cl)c1`, for which the GI50 with HCT-15 colon is 13.1 µM; with A498 renal, 22 µM; in the assay with TK-10 renal it was 2.38 µM; with RXF 393 renal it was 20.4 µM; with HS 578T breast, 14.2 µM; with RPMI-8226 leukemia, 5.64 µM. Besides, the GI50 in the assay with MOLT-4 leukemia was 9.16 µM; in the assay on PC-3 prostate it was 13.9 µM; with MDA-MB-435, 16.1 µM. Also, the TGI turned out to be 42.7 µM with HCT-15 colon; 41 µM with A498 renal; 7.1 µM in the assay with TK-10 renal; 43.1 µM in the assay on RXF 393 renal; 46.4 µM in the assay on HS 578T breast; 81.9 µM with RPMI-8226 leukemia. For the same compound, the TGI is over 100 µM in the assay on MOLT-4 leukemia, 55.7 µM in the assay with PC-3 prostate and 33.7 µM in the assay on MDA-MB-435.

For `COc1ccc2nc3ccccc3c(NCCCCN(CCCl)CCCl)c2c1`, the TGI in the assay on UACC-257 melanoma is 3.34 µM; with HCT-15 colon, over 43 µM; in the assay with A498 renal, 4.21 µM; in the assay with RXF 393 renal it was 0.289 µM; in the assay on HS 578T breast it was over 22.1 µM; in the assay on RPMI-8226 leukemia, 0.943 µM. Further, the TGI in the assay with MOLT-4 leukemia was under 0.0369 µM; in the assay with PC-3 prostate, 7.56 µM; with MDA-MB-435, 21.4 µM.

With `COC(=O)c1cc(-c2ccc(S(C)(=O)=O)cc2)[nH]c1N/N=C/c1c(Cl)cccc1Cl`, the GI50 in the assay on UACC-257 melanoma is 2.82 µM; in the assay on HCT-15 colon, 0.463 µM; with A498 renal, 0.334 µM; with TK-10 renal, 0.988 µM; with RXF 393 renal, 1.04 µM; in the assay on HS 578T breast, 0.318 µM. Further, the GI50 in the assay with RPMI-8226 leukemia was 0.491 µM; in the assay on MOLT-4 leukemia, 0.514 µM; with PC-3 prostate it was 0.565 µM; in the assay with MDA-MB-435, 0.214 µM. In addition, the TGI is over 100 µM in the assay with UACC-257 melanoma; over 100 µM in the assay with HCT-15 colon; 4.75 µM with A498 renal; 38.3 µM in the assay with TK-10 renal; over 100 µM in the assay with RXF 393 renal; 3.45 µM in the assay with HS 578T breast. The TGI is over 39.1 µM in the assay with RPMI-8226 leukemia, over 100 µM with MOLT-4 leukemia, over 50 µM with PC-3 prostate and 0.578 µM in the assay on MDA-MB-435.

For the compound `CSc1nc(SC)c2c(C)cn(COCCOC(=O)c3ccccc3)c2n1`, the TGI with HCT-15 colon, in the assay with A498 renal, with TK-10 renal, in the assay on RXF 393 renal, with HS 578T breast and in the assay on RPMI-8226 leukemia was over 100 µM throughout. The TGI in the assay on MOLT-4 leukemia, with PC-3 prostate and with MDA-MB-435 was over 100 µM in each case.

As for `O=C1C=CC(=O)c2c1nc(CBr)[nH]c2=O`, the TGI in the assay on UACC-257 melanoma, in the assay on HCT-15 colon, in the assay with A498 renal, in the assay with RXF 393 renal, with HS 578T breast and in the assay with RPMI-8226 leukemia was over 100 µM each time. Moreover, the TGI is over 100 µM in the assay on MOLT-4 leukemia, over 100 µM in the assay on PC-3 prostate and 87.4 µM with MDA-MB-435.

Take `CNC(=O)c1cc(Oc2ccc(NC(=O)Nc3cc(C(C)(C)C)nn3-c3ccc4ncccc4c3)c(F)c2)ccn1`: the GI50 with UACC-257 melanoma was 0.477 µM and 0.44 µM; in the assay with HCT-15 colon it was 2.01 µM and 2.35 µM; in the assay with A498 renal, 1.26 µM and 0.307 µM; in the assay with TK-10 renal, 1.83 µM and 1.7 µM; in the assay with RXF 393 renal, 0.821 µM and 0.647 µM; with HS 578T breast, 1.14 µM and 1.03 µM. The GI50 with RPMI-8226 leukemia was 2.4 µM and 2.5 µM; in the assay with MOLT-4 leukemia it was 1.58 µM and 2.08 µM; with PC-3 prostate it was 1.83 µM and 1.68 µM; in the assay with MDA-MB-435 it was 0.587 µM and 0.387 µM. Moreover, the TGI is 5.56 µM and 3.72 µM with UACC-257 melanoma; 7.3 µM and 8.53 µM with HCT-15 colon; 3.21 µM and 2.42 µM with A498 renal; 6.79 µM and 6.93 µM in the assay with TK-10 renal; 2.61 µM and 2.05 µM in the assay with RXF 393 renal; 5.42 µM and 5.03 µM in the assay on HS 578T breast. Besides, the TGI with RPMI-8226 leukemia was 6.51 µM and 5.91 µM; in the assay on MOLT-4 leukemia, 8.06 µM and 5.85 µM; in the assay with PC-3 prostate, 6.78 µM and 5.17 µM; in the assay with MDA-MB-435, 3.87 µM and 1.75 µM.

Take `O=C1Cc2cc(CCN3CCNCC3)c(Cl)cc2N1`: the GI50 is 6.52 µM with UACC-257 melanoma; 6.23 µM in the assay with HCT-15 colon; 2.85 µM with A498 renal; 6.89 µM in the assay with RXF 393 renal; 1.57 µM in the assay on HS 578T breast; 6.03 µM in the assay with RPMI-8226 leukemia. Moreover, the GI50 is over 100 µM in the assay on MOLT-4 leukemia, 98.3 µM in the assay with PC-3 prostate and 2.77 µM in the assay on MDA-MB-435. The TGI in the assay with UACC-257 melanoma, with HCT-15 colon, in the assay on A498 renal, with RXF 393 renal, in the assay on HS 578T breast and with RPMI-8226 leukemia was over 100 µM throughout. In addition, the results for the TGI in the assay on MOLT-4 leukemia, in the assay with PC-3 prostate and in the assay with MDA-MB-435 were over 100 µM, over 100 µM and 14.2 µM, respectively.

For the origin of these results see PubChem BioAssay (NCI).
